Laboratory results published in patent publication US20100160425A1, “ANTI-ALLERGIC AGENT AND BEVERAGE/FOOD, PREPARATION FOR EXTERNAL APPLICATION OR COSMETIC COMPRISING THE AGENT” (priority 2006, published 2010).

Test system: mouse bone marrow-derived cultured mast cells (BMMC)
Assay: Inhibition of histamine release from IgE-sensitized, DNP-HSA-stimulated mouse mast cells
Format: cell-based
Settings: for Ratio of Histamine Release Inhibiting Effect %: sample at 10 μg/ml, relative to distilled water control
Experimental: In order to determine the anti-allergic activity (type I allergy), inhibitory activity on the release of histamine from mouse mast cells was used as an indicator. The histamine release inhibitory effect was investigated by using mouse bone marrow-derived cultured mast cells (BMMC). The cells were cultured in a RPMI1640 medium supplemented with 10% heat inactivated FBS (fetal bovine serum), 3 ng/ml of interleukin-3 (IL-3), 5 mM […], and 50 μM 2-mercaptoethanol. The cells (1×10^7 cells/ml) were sensitized anti-DNP mouse IgE antibody overnight, then, on the following day, suspended in a Tyrode solution and incubated with the test samples for 10 minutes, degranulation was induced by adding DNP-HSA (antigen) (20 minutes), and the amount of histamine in the supernatant fluid was determined using liquid chromatography. An LC-10A (manufactured by Shimadzu Corporation) was used as the measuring instrument, and […] was used as the column. Isocratic analysis was conducted under the following conditions: flow rate of 0.5 ml/min; injection amount of 20 μl; temperature of the column oven of 37° C.; detector RF ([…], em. 430 nm). The anti-allergic activity was determined to be high when the relative value to distilled water, which was a control, was lower.

COc1cc(C(=O)O[C@@H]2Cc3c(O)cc(O)cc3O[C@@H]2c2ccc(O)c(O)c2)cc(O)c1O [ECG3″Me, epictechin-3-O-(3-O-methyl)gallate]
anti-allergic activity (among the compounds of general formula (1), summary statement): especially strong anti-allergic activity | histamine release inhibiting effect relative to that of EGCG3″Me (beverages containing 2 μg/ml and 10 μg/ml, FIG. 2): approximately 1.5 times | histamine release inhibiting effect when added to Yabukita hot-water extract (final additive concentration 0.1 to 50 μg/ml in Yabukita hot-water extract, FIG. 4): can increase the anti-allergic activity more than EGCG3″Me | Ratio of Histamine Release Inhibiting Effect %: 46.79%

epigallocatechin-3-O-(3-O-methyl)gallate [EGCG3″Me, reference compound]
Ratio of Histamine Release Inhibiting Effect %: 29.6%

epigallocatechin-3-O-gallate [EGCG, reference compound]
Ratio of Histamine Release Inhibiting Effect %: 7.63%
